Read-outs that look alike come from different tables or passages of the source.
Tests used:
Experiment in all cases: Test C pre/postemergence
Type in all cases: in vivo
[1] = system: corn (Zea mays); details: for Corn plant response rating (crop injury, 0 = no effect, 100 = complete kill) at 16 g/ha / Corn plant response rating (crop injury, 0 = no effect, 100 = complete kill) at 31 g/ha / Corn plant response rating (crop injury, 0 = no effect, 100 = complete kill) at 62 g/ha / Corn plant response rating (crop injury, 0 = no effect, 100 = complete kill) at 125 g/ha: Zea mays
Summary of the method: (§1)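 Pre: seeds planted, sprayed same day. Post: 1- to 4-leaf plants (2–18 cm). Formulation: non-phytotoxic solvent + surfactant. Greenhouse 12–14 d; visual % control vs untreated, 0–100.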

[2] = system: woolly cupgrass (Eriochloa villosa); details: for pest or weed control at 16 g/ha / pest or weed control at 31 g/ha / pest or weed control at 62 g/ha / pest or weed control at 125 g/ha: Eriochloa villosa
Summary of the method: as §1

[3] = system: morningglory (Ipomoea coccinea); details: for pest or weed control at 16 g/ha / pest or weed control at 31 g/ha / pest or weed control at 62 g/ha / pest or weed control at 125 g/ha: Ipomoea
Summary of the method: as §1

[4] = Postemergence, 62 g ai/ha, scale 0 to 100 (0 no effect, 100 complete control)
[5] = Postemergence, 125 g ai/ha, scale 0 to 100 (0 no effect, 100 complete control)
[6] = Postemergence, 250 g ai/ha, scale 0 to 100
[7] = Postemergence, 500 g ai/ha, scale 0 to 100
[8] = Preemergence, 62 g ai/ha, scale 0 to 100, 0 no effect, 100 complete control
[9] = Preemergence, 125 g ai/ha, scale 0 to 100
[10] = Preemergence, 250 g ai/ha, scale 0 to 100
[11] = Preemergence, 500 g ai/ha, scale 0 to 100
[12] = Preemergence, 16 g ai/ha, scale 0 to 100, 0 no effect, 100 complete control
[13] = Preemergence, 31 g ai/ha, scale 0 to 100, 0 no effect, 100 complete control

## COC(=O)CNc1nc(C2CC2)nc(C(=O)OC)c1Br [Compound 10]
[1]; [4]
  Corn plant response rating: 0
[1]; [5]
  Corn plant response rating: 0
[1]; [6]
  Plant response rating, Corn: 0
[1]; [7]
  Plant response rating, Corn: 0
[1]; [8]
  Plant response rating, Corn: 0
[1]; [9]
  Plant response rating, Corn: 0
[1]; [10]
  Plant response rating, Corn: 0
[1]; [11]
  Plant response rating, Corn: 0
[2]; [4]
  Cupgrass, Woolly plant response rating: 0
[2]; [5]
  Cupgrass, Woolly plant response rating: 0
[2]; [6]
  Plant response rating, Cupgrass, Woolly: 0
[2]; [7]
  Plant response rating, Cupgrass, Woolly: 0
[2]; [8]
  Plant response rating, Cupgrass, Woolly: 0
[2]; [9]
  Plant response rating, Cupgrass, Woolly: 0
[2]; [10]
  Plant response rating, Cupgrass, Woolly: 0
[2]; [11]
  Plant response rating, Cupgrass, Woolly: 0
[3]; [4]
  Morningglory plant response rating: 70
[3]; [5]
  Morningglory plant response rating: 85
[3]; [6]
  Plant response rating, Morningglory: 95
[3]; [7]
  Plant response rating, Morningglory: 95
[3]; [8]
  Plant response rating, Morningglory: 0
[3]; [9]
  Plant response rating, Morningglory: 0
[3]; [10]
  Plant response rating, Morningglory: 0
[3]; [11]
  Plant response rating, Morningglory: 100

## COCc1nc(C2CC2)nc(N)c1Br [Compound 11]
[1]; Postemergence, 16 g ai/ha
  Plant response rating (scale of 0 to 100), Corn: 0
[1]; Postemergence, 31 g ai/ha
  Plant response rating (scale of 0 to 100), Corn: 0
[1]; [4]
  Corn plant response rating: 0
[1]; [5]
  Corn plant response rating: 0
[1]; [12]
  Plant response rating, Corn: 0
[1]; [13]
  Plant response rating, Corn: 0
[1]; [8]
  Plant response rating, Corn: 0
[1]; [9]
  Plant response rating, Corn: 0
[2]; Postemergence, 16 g ai/ha
  Plant response rating (scale of 0 to 100), Cupgrass, Woolly: 0
[2]; Postemergence, 31 g ai/ha
  Plant response rating (scale of 0 to 100), Cupgrass, Woolly: 0
[2]; [4]
  Cupgrass, Woolly plant response rating: 0
[2]; [5]
  Cupgrass, Woolly plant response rating: 0
[2]; [12]
  Plant response rating, Cupgrass, Woolly: 0
[2]; [13]
  Plant response rating, Cupgrass, Woolly: 0
[2]; [8]
  Plant response rating, Cupgrass, Woolly: 0
[2]; [9]
  Plant response rating, Cupgrass, Woolly: 0
[3]; Postemergence, 16 g ai/ha
  Plant response rating (scale of 0 to 100), Morningglory: 0
[3]; Postemergence, 31 g ai/ha
  Plant response rating (scale of 0 to 100), Morningglory: 0
[3]; [4]
  Morningglory plant response rating: 0
[3]; [5]
  Morningglory plant response rating: 0
[3]; [12]
  Plant response rating, Morningglory: 0
[3]; [13]
  Plant response rating, Morningglory: 0
[3]; [8]
  Plant response rating, Morningglory: 0
[3]; [9]
  Plant response rating, Morningglory: 0

## CCOC(=O)Cc1nc(C2CC2)nc(N)c1Br [Compound 12]
[1]; [13]
  Plant response rating, Corn: 0
[1]; [8]
  Plant response rating, Corn: 30
[1]; [9]
  Plant response rating, Corn: 60
[2]; [13]
  Plant response rating, Cupgrass, Woolly: 0
[2]; [8]
  Plant response rating, Cupgrass, Woolly: 0
[2]; [9]
  Plant response rating, Cupgrass, Woolly: 10
[2]; [10]
  Plant response rating, Cupgrass, Woolly: 100
[3]; [13]
  Plant response rating, Morningglory: 30
[3]; [8]
  Plant response rating, Morningglory: 60
[3]; [9]
  Plant response rating, Morningglory: 60
[3]; [10]
  Plant response rating, Morningglory: 90

## COC(=O)Cc1nc(C2CC2)nc(N)c1Br [Compound 13]
[1]; [13]
  Plant response rating, Corn: 0
[1]; [8]
  Plant response rating, Corn: 5
[1]; [9]
  Plant response rating, Corn: 10
[1]; [10]
  Plant response rating, Corn: 30
[2]; [13]
  Plant response rating, Cupgrass, Woolly: 0
[2]; [8]
  Plant response rating, Cupgrass, Woolly: 0
[2]; [9]
  Plant response rating, Cupgrass, Woolly: 0
[2]; [10]
  Plant response rating, Cupgrass, Woolly: 0
[3]; [13]
  Plant response rating, Morningglory: 60
[3]; [8]
  Plant response rating, Morningglory: 65
[3]; [9]
  Plant response rating, Morningglory: 85
[3]; [10]
  Plant response rating, Morningglory: 90

## COC(=O)c1nc(C2CC2)nc(N)c1F [Compound 25]
[1]; post-emergence, Postemergence, 16 g ai/ha, read-out: Plant response rating (scale of 0 to 100), Corn
  Corn plant response rating (crop injury, 0 = no effect, 100 = complete kill) at 16 g/ha: 0%
[1]; post-emergence, Postemergence, 31 g ai/ha, read-out: Plant response rating (scale of 0 to 100), Corn
  Corn plant response rating (crop injury, 0 = no effect, 100 = complete kill) at 31 g/ha: 0%
[1]; post-emergence, Postemergence, 62 g ai/ha, scale 0 to 100 (0 no effect, 100 complete control), read-out: Corn plant response rating
  Corn plant response rating (crop injury, 0 = no effect, 100 = complete kill) at 62 g/ha: 0%
[1]; post-emergence, Postemergence, 125 g ai/ha, scale 0 to 100 (0 no effect, 100 complete control), read-out: Corn plant response rating
  Corn plant response rating (crop injury, 0 = no effect, 100 = complete kill) at 125 g/ha: 0%
[1]; pre-emergence, Preemergence, 16 g ai/ha, scale 0 to 100, 0 no effect, 100 complete control, read-out: Plant response rating, Corn
  Corn plant response rating (crop injury, 0 = no effect, 100 = complete kill) at 16 g/ha: 0%
[1]; pre-emergence, Preemergence, 31 g ai/ha, scale 0 to 100, 0 no effect, 100 complete control, read-out: Plant response rating, Corn
  Corn plant response rating (crop injury, 0 = no effect, 100 = complete kill) at 31 g/ha: 0%
[1]; pre-emergence, Preemergence, 62 g ai/ha, scale 0 to 100, 0 no effect, 100 complete control, read-out: Plant response rating, Corn
  Corn plant response rating (crop injury, 0 = no effect, 100 = complete kill) at 62 g/ha: 0%
[1]; pre-emergence, Preemergence, 125 g ai/ha, scale 0 to 100, read-out: Plant response rating, Corn
  Corn plant response rating (crop injury, 0 = no effect, 100 = complete kill) at 125 g/ha: 0%
[2]; post-emergence, Postemergence, 16 g ai/ha, read-out: Plant response rating (scale of 0 to 100), Cupgrass, Woolly
  pest or weed control at 16 g/ha: 0%
[2]; post-emergence, Postemergence, 31 g ai/ha, read-out: Plant response rating (scale of 0 to 100), Cupgrass, Woolly
  pest or weed control at 31 g/ha: 0%
[2]; post-emergence, Postemergence, 62 g ai/ha, scale 0 to 100 (0 no effect, 100 complete control), read-out: Cupgrass, Woolly plant response rating
  pest or weed control at 62 g/ha: 0%
[2]; post-emergence, Postemergence, 125 g ai/ha, scale 0 to 100 (0 no effect, 100 complete control), read-out: Cupgrass, Woolly plant response rating
  pest or weed control at 125 g/ha: 30%
[2]; pre-emergence, Preemergence, 16 g ai/ha, scale 0 to 100, 0 no effect, 100 complete control, read-out: Plant response rating, Cupgrass, Woolly
  pest or weed control at 16 g/ha: 0%
[2]; pre-emergence, Preemergence, 31 g ai/ha, scale 0 to 100, 0 no effect, 100 complete control, read-out: Plant response rating, Cupgrass, Woolly
  pest or weed control at 31 g/ha: 0%
[2]; pre-emergence, Preemergence, 62 g ai/ha, scale 0 to 100, 0 no effect, 100 complete control, read-out: Plant response rating, Cupgrass, Woolly
  pest or weed control at 62 g/ha: 0%
[2]; pre-emergence, Preemergence, 125 g ai/ha, scale 0 to 100, read-out: Plant response rating, Cupgrass, Woolly
  pest or weed control at 125 g/ha: 50%
[3]; post-emergence, Postemergence, 16 g ai/ha, read-out: Plant response rating (scale of 0 to 100), Morningglory
  pest or weed control at 16 g/ha: 90%
[3]; post-emergence, Postemergence, 31 g ai/ha, read-out: Plant response rating (scale of 0 to 100), Morningglory
  pest or weed control at 31 g/ha: 90%
[3]; post-emergence, Postemergence, 62 g ai/ha, scale 0 to 100 (0 no effect, 100 complete control), read-out: Morningglory plant response rating
  pest or weed control at 62 g/ha: 90%
[3]; post-emergence, Postemergence, 125 g ai/ha, scale 0 to 100 (0 no effect, 100 complete control), read-out: Morningglory plant response rating
  pest or weed control at 125 g/ha: 90%
[3]; pre-emergence, Preemergence, 16 g ai/ha, scale 0 to 100, 0 no effect, 100 complete control, read-out: Plant response rating, Morningglory
  pest or weed control at 16 g/ha: 0%
[3]; pre-emergence, Preemergence, 31 g ai/ha, scale 0 to 100, 0 no effect, 100 complete control, read-out: Plant response rating, Morningglory
  pest or weed control at 31 g/ha: 0%
[3]; pre-emergence, Preemergence, 62 g ai/ha, scale 0 to 100, 0 no effect, 100 complete control, read-out: Plant response rating, Morningglory
  pest or weed control at 62 g/ha: 50%
[3]; pre-emergence, Preemergence, 125 g ai/ha, scale 0 to 100, read-out: Plant response rating, Morningglory
  pest or weed control at 125 g/ha: 90%

## Nc1nc(C2CC2)nc(C=NO)c1Br [Compound 27]
[1]; [4]
  Corn plant response rating: 0
[1]; [5]
  Corn plant response rating: 0
[1]; [6]
  Plant response rating, Corn: 0
[1]; [7]
  Plant response rating, Corn: 0
[1]; [8]
  Plant response rating, Corn: 0
[1]; [9]
  Plant response rating, Corn: 10
[1]; [10]
  Plant response rating, Corn: 15
[1]; [11]
  Plant response rating, Corn: 25
[2]; [4]
  Cupgrass, Woolly plant response rating: 0
[2]; [5]
  Cupgrass, Woolly plant response rating: 0
[2]; [6]
  Plant response rating, Cupgrass, Woolly: 0
[2]; [7]
  Plant response rating, Cupgrass, Woolly: 0
[2]; [8]
  Plant response rating, Cupgrass, Woolly: 0
[2]; [9]
  Plant response rating, Cupgrass, Woolly: 0
[2]; [10]
  Plant response rating, Cupgrass, Woolly: 10
[2]; [11]
  Plant response rating, Cupgrass, Woolly: 15
[3]; [4]
  Morningglory plant response rating: 20
[3]; [5]
  Morningglory plant response rating: 85
[3]; [6]
  Plant response rating, Morningglory: 85
[3]; [7]
  Plant response rating, Morningglory: 85
[3]; [8]
  Plant response rating, Morningglory: 0
[3]; [9]
  Plant response rating, Morningglory: 70
[3]; [10]
  Plant response rating, Morningglory: 95
[3]; [11]
  Plant response rating, Morningglory: 100

## COC(=O)c1nc(C2CC2C)nc(N)c1Br (centres unmarked) [Compound 28]
[1]; [4]
  Corn plant response rating: 0
[1]; [5]
  Corn plant response rating: 0
[1]; [6]
  Plant response rating, Corn: 0
[1]; [7]
  Plant response rating, Corn: 0
[1]; [8]
  Plant response rating, Corn: 0
[1]; [9]
  Plant response rating, Corn: 0
[1]; [10]
  Plant response rating, Corn: 0
[1]; [11]
  Plant response rating, Corn: 0
[2]; [4]
  Cupgrass, Woolly plant response rating: 0
[2]; [5]
  Cupgrass, Woolly plant response rating: 0
[2]; [6]
  Plant response rating, Cupgrass, Woolly: 0
[2]; [7]
  Plant response rating, Cupgrass, Woolly: 0
[2]; [8]
  Plant response rating, Cupgrass, Woolly: 0
[2]; [9]
  Plant response rating, Cupgrass, Woolly: 0
[2]; [10]
  Plant response rating, Cupgrass, Woolly: 0
[2]; [11]
  Plant response rating, Cupgrass, Woolly: 0
[3]; [4]
  Morningglory plant response rating: 80
[3]; [5]
  Morningglory plant response rating: 95
[3]; [6]
  Plant response rating, Morningglory: 95
[3]; [7]
  Plant response rating, Morningglory: 95
[3]; [8]
  Plant response rating, Morningglory: 100
[3]; [9]
  Plant response rating, Morningglory: 100
[3]; [10]
  Plant response rating, Morningglory: 100
[3]; [11]
  Plant response rating, Morningglory: 100

Reference: patent US8802597B2, “Herbicidal pyrimidines” (E I du Pont de Nemours and Company, priority 2003, dated 2014)
